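Assay format: 96-well plates, 48-hour exposure. GI50 is the concentration that inhibits growth by half. TGI marks complete inhibition of growth.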
How the values were obtained:
Experiment in all cases: DTP human tumour cell line panel, 48 h
HCT-116 colon = tested on: HCT-116 colon
CCRF-CEM leukemia = tested on: CCRF-CEM leukemia
SF-268 CNS = tested on: SF-268 CNS
U251 CNS = tested on: U251 CNS
EKVX NSCLC = tested on: EKVX NSCLC
SNB-19 CNS = tested on: SNB-19 CNS
OVCAR-8 ovarian = tested on: OVCAR-8 ovarian
MOLT-4 leukemia = tested on: MOLT-4 leukemia
SK-OV-3 ovarian = tested on: SK-OV-3 ovarian
SR leukemia = tested on: SR leukemia
SK-MEL-2 melanoma = tested on: SK-MEL-2 melanoma
MDA-MB-231 breast = tested on: MDA-MB-231 breast
NCI-H460 lung = tested on: NCI-H460 lung
BT-549 breast = tested on: BT-549 breast

O=C1c2ccccc2N2OC3(N4CCOCC4)CCCC3C12c1ccccc1 (configuration not stated)
TGI (HCT-116 colon): > 100 µM
TGI (CCRF-CEM leukemia): > 100 µM
TGI (SF-268 CNS): > 100 µM
TGI (U251 CNS): > 100 µM
TGI (EKVX NSCLC): > 100 µM
TGI (SNB-19 CNS): > 100 µM
TGI (OVCAR-8 ovarian): > 100 µM
TGI (MOLT-4 leukemia): > 100 µM
TGI (SK-OV-3 ovarian): > 100 µM
TGI (SR leukemia): > 100 µM

CN(NC1=NCCO1)c1ccc2ccccc2c1
TGI (SK-MEL-2 melanoma): 97.2 µM
TGI (HCT-116 colon): > 100 µM
TGI (CCRF-CEM leukemia): 49.5 µM
TGI (MDA-MB-231 breast): > 100 µM
TGI (SF-268 CNS): > 100 µM
TGI (U251 CNS): > 100 µM
TGI (EKVX NSCLC): > 100 µM
TGI (NCI-H460 lung): > 100 µM
TGI (SNB-19 CNS): > 100 µM
TGI (OVCAR-8 ovarian): > 100 µM
TGI (MOLT-4 leukemia): > 100 µM
TGI (SK-OV-3 ovarian): > 100 µM
TGI (SR leukemia): > 100 µM

NS(=O)(=O)c1nnc(NC(=S)NC(=O)Nc2ccc(Cl)c(Cl)c2)s1
TGI (SK-MEL-2 melanoma): 88 µM
TGI (HCT-116 colon): 44.3 µM
TGI (CCRF-CEM leukemia): > 100 µM
TGI (MDA-MB-231 breast): > 100 µM
TGI (SF-268 CNS): > 100 µM
TGI (U251 CNS): > 100 µM
TGI (EKVX NSCLC): 80.1 µM
TGI (BT-549 breast): 50.2 µM
TGI (SNB-19 CNS): 94.8 µM
TGI (OVCAR-8 ovarian): 69.7 µM
TGI (MOLT-4 leukemia): > 100 µM
TGI (SK-OV-3 ovarian): 62.1 µM

O=C(c1ccccc1)[C@H]1Nc2ccc(Cl)cc2[C@H]2CCC[C@@H]12
TGI (SK-MEL-2 melanoma): 49.5 µM
TGI (HCT-116 colon): 41.5 µM
TGI (SF-268 CNS): > 100 µM
TGI (U251 CNS): > 100 µM
TGI (NCI-H460 lung): 88 µM
TGI (SNB-19 CNS): > 100 µM
TGI (OVCAR-8 ovarian): > 100 µM
TGI (MOLT-4 leukemia): 86.8 µM
TGI (SR leukemia): > 100 µM

O=C1CC(c2cccc(Cl)c2)Nc2ccc(N3CCCC3)cc21 (configuration not stated)
GI50 (MDA-MB-231 breast): 0.433 µM
TGI (MDA-MB-231 breast): > 100 µM
GI50 (SF-268 CNS): 0.0417 µM
TGI (SF-268 CNS): > 100 µM
TGI (U251 CNS): > 100 µM
TGI (EKVX NSCLC): > 100 µM
TGI (SNB-19 CNS): > 100 µM
TGI (OVCAR-8 ovarian): 3.85 µM
TGI (SK-OV-3 ovarian): > 100 µM

CN1CCOC(C(NC(=O)c2ccccc2)c2ccccc2)C1=O (configuration not stated)
TGI (SK-MEL-2 melanoma): > 100 µM
TGI (HCT-116 colon): > 100 µM
TGI (CCRF-CEM leukemia): > 100 µM
TGI (SF-268 CNS): > 100 µM
TGI (U251 CNS): > 100 µM
TGI (EKVX NSCLC): > 100 µM
TGI (NCI-H460 lung): > 100 µM
TGI (SNB-19 CNS): > 100 µM
TGI (OVCAR-8 ovarian): > 100 µM
TGI (MOLT-4 leukemia): > 100 µM
TGI (SK-OV-3 ovarian): > 100 µM
TGI (SR leukemia): > 100 µM

CC(C)C(Cl)CCC(C)(Cl)C(=O)CBr (configuration not stated)
TGI (SK-MEL-2 melanoma): 21.9 µM
TGI (HCT-116 colon): 9.06 µM
TGI (CCRF-CEM leukemia): > 100 µM
TGI (MDA-MB-231 breast): 21.5 µM
TGI (SF-268 CNS): 56 µM
TGI (U251 CNS): 25.8 µM
TGI (EKVX NSCLC): 32.8 µM
TGI (BT-549 breast): 22.6 µM
TGI (NCI-H460 lung): 33.4 µM
TGI (SNB-19 CNS): > 67.3 µM
TGI (OVCAR-8 ovarian): > 100 µM
TGI (SK-OV-3 ovarian): 39.1 µM

O=C(c1ccc(Cl)cc1)N(C(=O)N1CCCCC1)c1ccccc1
TGI (SK-MEL-2 melanoma): > 100 µM
TGI (HCT-116 colon): > 100 µM
TGI (CCRF-CEM leukemia): > 100 µM
TGI (MDA-MB-231 breast): > 100 µM
TGI (SF-268 CNS): > 100 µM
TGI (U251 CNS): > 100 µM
TGI (EKVX NSCLC): > 100 µM
TGI (BT-549 breast): > 100 µM
TGI (SNB-19 CNS): > 100 µM
TGI (OVCAR-8 ovarian): > 100 µM
TGI (MOLT-4 leukemia): 72 µM
TGI (SK-OV-3 ovarian): > 100 µM

COc1cc(C2c3cc4c(cc3OC(NN)C2C)OCO4)cc(OC)c1O (configuration not stated)
TGI (SK-MEL-2 melanoma): 13.1 µM
TGI (HCT-116 colon): 20.1 µM
TGI (MDA-MB-231 breast): 84.9 µM
TGI (SF-268 CNS): > 100 µM
TGI (U251 CNS): 33.5 µM
TGI (BT-549 breast): 51.3 µM
TGI (SNB-19 CNS): > 100 µM
TGI (OVCAR-8 ovarian): 67.8 µM

C1CCC(N=C2N(C3CCCCC3)C(=NC3CCCCC3)N2C2CCCCC2)CC1
TGI (SK-MEL-2 melanoma): > 100 µM
TGI (HCT-116 colon): > 100 µM
TGI (CCRF-CEM leukemia): > 100 µM
TGI (SF-268 CNS): > 100 µM
TGI (U251 CNS): > 100 µM
TGI (EKVX NSCLC): > 100 µM
TGI (NCI-H460 lung): > 100 µM
TGI (SNB-19 CNS): > 100 µM
TGI (OVCAR-8 ovarian): > 100 µM
TGI (MOLT-4 leukemia): > 100 µM
TGI (SK-OV-3 ovarian): > 100 µM
TGI (SR leukemia): > 100 µM

CCCCCCCCOCC(COC(=O)CCCCCCC)OC(=O)CCCCCCC (configuration not stated)
TGI (HCT-116 colon): > 100 µM
TGI (CCRF-CEM leukemia): > 100 µM
TGI (SF-268 CNS): > 100 µM
TGI (U251 CNS): > 100 µM
TGI (NCI-H460 lung): > 100 µM
TGI (SNB-19 CNS): > 100 µM
TGI (OVCAR-8 ovarian): > 100 µM
TGI (MOLT-4 leukemia): > 100 µM
TGI (SK-OV-3 ovarian): > 100 µM
TGI (SR leukemia): > 100 µM

COC(CN(C)C(=S)Nc1cccc2ccccc12)OC
TGI (SK-MEL-2 melanoma): > 10 µM
TGI (HCT-116 colon): > 10 µM
TGI (CCRF-CEM leukemia): > 10 µM
TGI (MDA-MB-231 breast): > 10 µM
TGI (SF-268 CNS): > 10 µM
TGI (U251 CNS): > 10 µM
TGI (EKVX NSCLC): > 10 µM
TGI (NCI-H460 lung): > 10 µM
TGI (SNB-19 CNS): > 10 µM
TGI (OVCAR-8 ovarian): > 10 µM
TGI (MOLT-4 leukemia): > 10 µM
TGI (SK-OV-3 ovarian): > 10 µM
TGI (SR leukemia): > 10 µM

Oc1c(N2CCCCC2)cc(-c2cc(N3CCCCC3)c(O)c3ccccc23)c2ccccc12
TGI (SK-MEL-2 melanoma): 91.6 µM
TGI (HCT-116 colon): 40.7 µM
TGI (CCRF-CEM leukemia): > 100 µM
TGI (MDA-MB-231 breast): > 100 µM
TGI (SF-268 CNS): > 100 µM
TGI (U251 CNS): > 100 µM
TGI (EKVX NSCLC): > 100 µM
TGI (NCI-H460 lung): > 100 µM
TGI (SNB-19 CNS): > 100 µM
TGI (OVCAR-8 ovarian): > 100 µM
TGI (MOLT-4 leukemia): 79.8 µM
TGI (SK-OV-3 ovarian): > 100 µM
TGI (SR leukemia): 16.2 µM

N#Cc1sc2nc3ccccc3n2c1N
TGI (SK-MEL-2 melanoma): 81.7 µM
TGI (HCT-116 colon): > 100 µM
TGI (CCRF-CEM leukemia): > 100 µM
TGI (MDA-MB-231 breast): > 100 µM
TGI (SF-268 CNS): > 100 µM
TGI (U251 CNS): > 100 µM
TGI (EKVX NSCLC): > 100 µM
TGI (BT-549 breast): > 100 µM
TGI (SNB-19 CNS): > 100 µM
TGI (OVCAR-8 ovarian): > 100 µM
TGI (MOLT-4 leukemia): > 100 µM
TGI (SK-OV-3 ovarian): > 100 µM

CC1(C)O[C@@H]2[C@@H](COC(C)(C)O[C@H]2C2SCCCS2)O1
TGI (SK-MEL-2 melanoma): > 100 µM
TGI (HCT-116 colon): > 100 µM
TGI (MDA-MB-231 breast): > 100 µM
TGI (SF-268 CNS): > 100 µM
TGI (U251 CNS): > 100 µM
TGI (NCI-H460 lung): > 100 µM
TGI (SNB-19 CNS): > 100 µM
TGI (OVCAR-8 ovarian): > 100 µM
TGI (MOLT-4 leukemia): > 100 µM
TGI (SK-OV-3 ovarian): > 100 µM

Reference: PubChem BioAssay (NCI)
